Key:
human recombinant HDAC1 = target: T1, human recombinant HDAC1 (Homo sapiens, UniProt Q13547); experiment: HDAC1 enzyme activity inhibition (HDAC1 Fluorimetric Drug Discovery Assay Kit, in vitro); format: biochemical; conditions: samples at 100, 1000 and 10000 nM
T1 construct: purchased Enzolifesciences BML-SE456
Procedure: (§1) A HDAC enzyme inhibitory capacity of a test material was measured by using HDAC1 Fluorimetric Drug Discovery Assay Kit (Enzolifesciences: BML-AK511) and HDAC6 human recombinant (Calbiochem: 382180). For a HDAC1 assay, samples were treated at a concentration of 100, 1000 and 10000 nM. For a HDAC6 assay, samples were treated at a concentration of 0.1, 1, 10, 100 and 1000 nM.
(§2) For the test on the HDAC1 enzyme activity, human recombinant HDAC1 (BML-SE456) was used as a zymogen and Fluor de Lys®-SIRT1 (BNL-KI177) was used as a substrate. A 5-fold dilution of the compound was divided into a 96-well plate, after which 0.3 μg of the enzyme and […] of the substrate were inserted into each well and subjected to reaction at 37° C. for 60 minutes, such that Fluor de Lys® Developer II (BML-K1176) was inserted thereinto and subjected to reaction for 30 minutes and finished. After that, a fluorescence value (Ex 360, Em 460) was measured with a multi-plate reader (FlexStation 3, Molecular Device). An experiment on HDAC6 enzyme was conducted in accordance with the same protocol as in the HDAC1 enzyme activity test method by using human recombinant HDAC6 (382180) of Calbiochem Inc. For final result values, each IC50 value was calculated with GraphPad Prism 4.0 program.

human recombinant HDAC6 = target: T2, human recombinant HDAC6 (Homo sapiens, UniProt Q9UBN7); experiment: HDAC6 enzyme activity inhibition (fluorimetric, in vitro); format: biochemical; conditions: samples at 0.1, 1, 10, 100 and 1000 nM
T2 construct: purchased Calbiochem 382180
T2 sequence (Q9UBN7 1-1215): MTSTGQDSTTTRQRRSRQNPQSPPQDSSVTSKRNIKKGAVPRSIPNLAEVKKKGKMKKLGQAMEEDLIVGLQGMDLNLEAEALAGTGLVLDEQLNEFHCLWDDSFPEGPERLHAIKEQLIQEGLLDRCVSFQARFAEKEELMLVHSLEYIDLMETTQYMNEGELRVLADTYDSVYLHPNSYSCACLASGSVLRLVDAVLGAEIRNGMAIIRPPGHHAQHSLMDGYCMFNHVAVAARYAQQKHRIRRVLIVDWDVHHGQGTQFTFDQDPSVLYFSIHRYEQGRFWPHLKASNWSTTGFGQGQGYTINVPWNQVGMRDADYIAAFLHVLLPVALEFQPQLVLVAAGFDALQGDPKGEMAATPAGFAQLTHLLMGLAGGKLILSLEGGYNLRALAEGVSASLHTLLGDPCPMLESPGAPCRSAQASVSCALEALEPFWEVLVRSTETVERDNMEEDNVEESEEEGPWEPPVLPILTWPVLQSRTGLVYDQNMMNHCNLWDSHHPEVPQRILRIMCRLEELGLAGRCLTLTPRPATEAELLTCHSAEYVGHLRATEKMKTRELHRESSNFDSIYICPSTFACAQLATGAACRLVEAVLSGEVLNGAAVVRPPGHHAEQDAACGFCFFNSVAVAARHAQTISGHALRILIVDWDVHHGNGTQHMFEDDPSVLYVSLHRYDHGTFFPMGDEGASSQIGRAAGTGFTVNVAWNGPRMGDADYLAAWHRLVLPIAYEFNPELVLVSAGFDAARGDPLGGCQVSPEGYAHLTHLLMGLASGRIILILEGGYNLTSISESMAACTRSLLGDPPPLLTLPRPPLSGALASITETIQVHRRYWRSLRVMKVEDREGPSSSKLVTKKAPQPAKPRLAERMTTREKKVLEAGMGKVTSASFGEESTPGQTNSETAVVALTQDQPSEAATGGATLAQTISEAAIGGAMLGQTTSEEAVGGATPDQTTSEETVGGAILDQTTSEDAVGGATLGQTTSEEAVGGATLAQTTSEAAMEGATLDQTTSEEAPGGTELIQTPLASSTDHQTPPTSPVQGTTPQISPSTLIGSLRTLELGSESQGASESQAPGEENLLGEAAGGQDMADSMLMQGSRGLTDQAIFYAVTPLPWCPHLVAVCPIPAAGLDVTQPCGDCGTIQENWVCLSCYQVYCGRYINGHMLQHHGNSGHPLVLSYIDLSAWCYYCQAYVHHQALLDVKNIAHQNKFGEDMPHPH
Procedure: as §1, §2

T1 sequence (Q13547 whole entry): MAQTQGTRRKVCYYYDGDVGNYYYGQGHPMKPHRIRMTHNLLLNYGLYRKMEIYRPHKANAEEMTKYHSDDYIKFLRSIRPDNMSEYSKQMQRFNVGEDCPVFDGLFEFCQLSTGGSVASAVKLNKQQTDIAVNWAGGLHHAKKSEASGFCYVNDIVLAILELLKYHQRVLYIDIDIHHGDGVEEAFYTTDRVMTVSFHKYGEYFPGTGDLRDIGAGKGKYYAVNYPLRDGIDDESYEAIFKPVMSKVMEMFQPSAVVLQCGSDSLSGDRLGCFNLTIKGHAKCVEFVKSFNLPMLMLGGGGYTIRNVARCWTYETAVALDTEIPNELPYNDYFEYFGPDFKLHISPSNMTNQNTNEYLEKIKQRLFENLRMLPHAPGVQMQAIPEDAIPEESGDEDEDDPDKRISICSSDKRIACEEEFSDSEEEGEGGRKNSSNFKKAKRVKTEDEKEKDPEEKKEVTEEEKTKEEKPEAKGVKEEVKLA

SMILES | IC50 (human recombinant HDAC1) [nM] | IC50 (human recombinant HDAC6) [nM]
N=S1(=O)CCN(C(=O)N(Cc2ccc(-c3nnc(C(F)F)o3)cc2F)c2ccccc2)CC1 [Compound 1, N-(4-(5-(difluoromethyl)-1,3,4-oxadiazol-2-yl)-2-fluorobenzyl)-1-imino-N-phenylthiomorpholin-4-carboxamide 1-oxide] | > 10000 | 49.4
O=C(N1CCS(=O)(=NC(=O)C(F)(F)F)CC1)N(Cc1ccc(-c2nnc(C(F)F)o2)cn1)c1ccccc1 [Compound 2, N-((5-(5-(difluoromethyl)-1,3,4-oxadiazol-2-yl)pyridin-2-yl)methyl)-N-phenyl-1-((2,2,2-trifluoroacetyl)imino)thiomorpholin-4-carboxamide 1-oxide] | > 10000 | 168
N=S1(=O)CCN(C(=O)N(Cc2ccc(-c3nnc(C(F)F)o3)cn2)c2ccccc2)CC1 [Compound 3, N-((5-(5-(difluoromethyl)-1,3,4-oxadiazol-2-yl)pyridin-2-yl)methyl)-1-imino-N-phenylthiomorpholin-4-carboxamide 1-oxide] | > 10000 | 151
O=C(N=S1(=O)CCN(C(=O)N(Cc2ccc(-c3nnc(C(F)F)o3)cc2F)c2ccccc2)CC1)OCc1ccccc1 [Compound 4, Benzyl (4-((4-(5-(difluoromethyl)-1,3,4-oxadiazol-2-yl)-2-fluorobenzyl)(phenyl)carbamoyl)-1-oxidothiomorpholin-1-ylidene)carbamate] | > 10000 | 390
O=C(N=S1(=O)CCN(C(=O)N(Cc2ccc(-c3nnc(C(F)F)o3)cn2)c2ccccc2)CC1)OCc1ccccc1 [Compound 5, Benzyl (4-(((5-(5-(difluoromethyl)-1,3,4-oxadiazol-2-yl)pyridin-2-yl)methyl)(phenyl)carbamoyl)-1-oxidothiomorpholin-1-ylidene)carbamate] | > 10000 | 91.4
N=S1(=O)CCN(C(=O)N(Cc2ccc(-c3nnc(C(F)F)o3)cc2F)c2ccc(F)c(F)c2)CC1 [Compound 6, N-(4-(5-(difluoromethyl)-1,3,4-oxadiazol-2-yl)-2-fluorobenzyl)-N-(3,4-difluorophenyl)-1-iminothiomorpholin-4-carboxamide 1-oxide] | > 10000 | 50
N=S1(=O)CCN(C(=O)N(Cc2ccc(-c3nnc(C(F)F)o3)cn2)c2ccc(F)c(F)c2)CC1 [Compound 7, N-((5-(5-(difluoromethyl)-1,3,4-oxadiazol-2-yl)pyridin-2-yl)methyl)-N-(3,4-difluorophenyl)-1-iminothiomorpholin-4-carboxamide 1-oxide] | > 10000 | 40.9
N=S1(=O)CCC(C(=O)N(Cc2ccc(-c3nnc(C(F)F)o3)cc2F)c2ccccc2)CC1 (stereo not drawn) [Compound 8, N-(4-(5-(difluoromethyl)-1,3,4-oxadiazol-2-yl)-2-fluorobenzyl)-1-imino-N-phenyltetrahydro-2H-thiopyran-4-carboxamide 1-oxide] | > 10000 | 194
N=S1(=O)CCN(C(=O)N(Cc2ccc(-c3nnc(C(F)(F)F)o3)cn2)c2ccccc2)CC1 [Compound 9, 1-imino-N-phenyl-N-((5-(5-(trifluoromethyl)-1,3,4-oxadiazol-2-yl)pyridin-2-yl)methyl)thiomorpholine-4-carboxamide 1-oxide] | > 10000 | 280
Cn1ccc2cc(N(Cc3ccc(-c4nnc(C(F)F)o4)cc3F)C(=O)N3CCS(=N)(=O)CC3)ccc21 [Compound 10, N-(4-(5-(difluoromethyl)-1,3,4-oxadiazol-2-yl)-2-fluorobenzyl)-1-imino-N-(1-methyl-1H-indol-5-yl)thiomorpholin-4-carboxamide 1-oxide] | > 10000 | 108
CS(=N)(=O)c1ccc(N(Cc2ccc(-c3nnc(C(F)F)o3)cc2F)C(=O)N2CCS(=N)(=O)CC2)cc1 (stereo not drawn) [Compound 11, N-(4-(5-(difluoromethyl)-1,3,4-oxadiazol-2-yl)-2-fluorobenzyl)-1-imino-N-(4-(S-methylsulfonimidoyl)phenyl)thiomorpholin-4-carboxamide 1-oxide] | > 10000 | 1420
N=S1(=O)CCN(C(=O)N(Cc2ccc(-c3nnc(C(F)F)o3)cc2F)c2cccs2)CC1 [Compound 12, N-(4-(5-(difluoromethyl)-1,3,4-oxadiazol-2-yl)-2-fluorobenzyl)-1-imino-N-(thiophen-2-yl)thiomorpholin-4-carboxamide 1-oxide] | > 10000 | 62.6
N=S1(=O)CCN(C(=O)N(Cc2ccc(-c3nnc(C(F)F)o3)cc2F)c2cccc(F)c2)CC1 [Compound 13, N-(4-(5-(difluoromethyl)-1,3,4-oxadiazol-2-yl)-2-fluorobenzyl)-N-(3-fluorophenyl)-1-iminothiomorpholin-4-carboxamide 1-oxide] | > 10000 | 44
Cn1ccc2cc(N(Cc3ccc(-c4nnc(C(F)F)o4)cn3)C(=O)N3CCS(=N)(=O)CC3)ccc21 [Compound 14, N-((5-(5-(difluoromethyl)-1,3,4-oxadiazol-2-yl)pyridin-2-yl)methyl)-1-imino-N-(1-methyl-1H-indol-5-yl)thiomorpholin-4-carboxamide 1-oxide] | > 10000 | 94.4
CS(=N)(=O)c1ccc(N(Cc2ccc(-c3nnc(C(F)F)o3)cn2)C(=O)N2CCS(=N)(=O)CC2)cc1 (stereo not drawn) [Compound 15, N-((5-(5-(difluoromethyl)-1,3,4-oxadiazol-2-yl)pyridin-2-yl)methyl)-1-imino-N-(4-(S-methylsulfonimidoyl)phenyl)thiomorpholin-4-carboxamide 1-oxide] | > 10000 | 1350
N=S1(=O)CCN(C(=O)N(Cc2ccc(-c3nnc(C(F)F)o3)cn2)c2cccs2)CC1 [Compound 16, N-((5-(5-(difluoromethyl)-1,3,4-oxadiazol-2-yl)pyridin-2-yl)methyl)-1-imino-N-(thiophen-2-yl)thiomorpholin-4-carboxamide 1-oxide] | > 10000 | 42.6
N=S1(=O)CCN(C(=O)N(Cc2ccc(-c3nnc(C(F)F)o3)cn2)c2cccc(F)c2)CC1 [Compound 17] | > 10000 | 27.2
N=S1(=O)CCN(S(=O)(=O)N(Cc2ccc(-c3nnc(C(F)F)o3)cc2F)c2ccccc2)CC1 [Compound 18, N-(4-(5-(difluoromethyl)-1,3,4-oxadiazol-2-yl)-2-fluorobenzyl)-1-imino-N-phenylthiomorpholin-4-sulfonamide 1-oxide] | > 10000 | 32.6
N=S1(=O)CCN(S(=O)(=O)N(Cc2ccc(-c3nnc(C(F)F)o3)cn2)c2ccccc2)CC1 [Compound 19, N-((5-(5-(difluoromethyl)-1,3,4-oxadiazol-2-yl)pyridin-2-yl)methyl)-1-imino-N-phenylthiomorpholin-4-sulfonamide 1-oxide] | > 10000 | 19.7
N=S1(=O)CC(N2C[C@@H]3C[C@H]2CN3c2c(N(Cc3ncc(-c4nnc(C(F)F)o4)cc3F)c3ccccc3)c(=O)c2=O)C1 (stereo partly drawn) [Compound 88, 3-[N-[[5-[5-(difluoromethyl)-1.3.4-oxadiazol-2-yl]-3-fluoro-2-pyridyl]methyl]anilino]-4-[(1S,4S)-5-(1-imino-1-oxo-thiethan-3-yl)-2,5-diazabicyclo[2.2.1]heptan-2-yl]cyclobut-3-en-1,2-dione] | > 10000 | 

Reference: patent publication US20260125370A1, “SULFOXIMINE COMPOUNDS AS HISTONE DEACETYLASE 6 INHIBITOR, AND PHARMACEUTICAL COMPOSITION COMPRISING THE SAME” (CHONG KUN DANG PHARMACEUTICAL CORP., priority 2022, published 2026)
